Reference: US12668585B2, “Substituted pyrimidinyl-pyrazoles as CDK2 inhibitors” (BLUEPRINT MEDICINES CORPORATION, priority 2021, dated 2026)

What was measured:
CDK2/Cyclin E = target: T1, CDK2/Cyclin E (Homo sapiens, UniProt P24941); assay: Biochemical CDK inhibition assay (Caliper mobility shift), CDK2/Cyclin E; details: read-out: CDK2/cyclin E1 IC50
T1 construct: purchased Eurofins 14-475
Experimental: (§1) Inhibitory effects of the compounds of the disclosure were measured in biochemical assays that measure the enzymatic phosphorylation activity of CDK enzyme in complex of Cyclin proteins phosphorylates 7.5 micromolar fluorescently labelled peptide substrate, 5-FAM-QSPKKG-CONH2, (FL-Peptide 18, Perkin Elmer, 760362) in the presence of adenosine-5′-triphosphate (ATP) and varying concentrations of the test compound in 100 mM 2-[4-(2-hydroxyethyl)piperazin-1-yl] ethanesulfonic acid (HEPES), pH 7.5, 10 mM MgCl2, 0.015% Brij-35, 1 mM dithiothreitol (DTT), 1.0% dimehylsulfoxide (DMSO). […] Reactions proceeded until between 10% to 20% total peptides were phosphorylated at room temperature (25° C.) and were terminated with 35 mM 2,2′,2″,2′″-(ethane-1,2-diyldinitrilo)tetraacetic acid (EDTA). Product was detected using the Caliper mobility shift detection method where the phosphorylated peptide (product) and substrate were electrophoretically separated and measured. Percent activity was plotted against log concentration of compound and points to generate an apparent IC50. The following CDK enzymes in complex with different cyclin proteins were used in these assays: • CDK1/Cyclin B1, GST-tag (BPS, 40454), 1.5 nM used in the assay • CDK2/Cyclin E (Eurofins, 14-475), 1.25 nM used in the assays
(§2) For inhibitory activity against CDK2/Cyclin E mutant, the following designations are used: ≤10 nM=A; >10-20 nM=B; >20-30 nM=C; >30-100 nM=D and >100=E. For inhibition CDK1/Cyclin B1, GST-tag: ≥500 nM=A; <100-500 nM=B; <100 nM=C.

CDK1/Cyclin B1, GST-tag = target: T2, CDK1/Cyclin B1, GST-tag (Homo sapiens, UniProt P06493); assay: Biochemical CDK inhibition assay (Caliper mobility shift), CDK1/Cyclin B1
T2 construct: GST; purchased BPS 40454
Experimental: as §1, §2

T2 sequence (P06493 whole entry): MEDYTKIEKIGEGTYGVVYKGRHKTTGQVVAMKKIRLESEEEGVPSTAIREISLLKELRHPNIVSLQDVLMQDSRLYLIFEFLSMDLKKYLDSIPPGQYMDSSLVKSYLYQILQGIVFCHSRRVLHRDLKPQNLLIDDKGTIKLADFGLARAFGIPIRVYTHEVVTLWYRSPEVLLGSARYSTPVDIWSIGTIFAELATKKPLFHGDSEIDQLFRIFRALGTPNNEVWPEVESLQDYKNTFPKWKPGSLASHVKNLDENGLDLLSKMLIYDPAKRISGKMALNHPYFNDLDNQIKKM
T2 sequence (P14635 whole entry partner): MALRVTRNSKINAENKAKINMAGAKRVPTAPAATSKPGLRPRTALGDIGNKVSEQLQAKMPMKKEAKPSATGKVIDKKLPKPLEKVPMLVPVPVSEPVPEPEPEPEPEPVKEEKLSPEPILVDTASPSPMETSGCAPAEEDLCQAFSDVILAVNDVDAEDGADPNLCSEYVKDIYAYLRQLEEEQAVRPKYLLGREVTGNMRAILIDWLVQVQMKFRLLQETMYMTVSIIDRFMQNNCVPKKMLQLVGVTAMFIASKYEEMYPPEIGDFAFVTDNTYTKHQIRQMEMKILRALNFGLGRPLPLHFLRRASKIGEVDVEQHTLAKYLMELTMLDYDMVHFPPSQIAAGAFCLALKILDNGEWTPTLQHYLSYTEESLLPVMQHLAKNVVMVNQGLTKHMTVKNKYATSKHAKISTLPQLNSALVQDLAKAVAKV

Row | IC50 (CDK2/Cyclin E) [nM] | IC50 (CDK1/Cyclin B1, GST-tag) [nM] | SMILES
1 | 30 to 100 | ≥ 500 | COc1cc(S(N)(=O)=O)ccc1Nc1ncc(F)c(-c2cnn(CC(C)(C)O)c2)n1 [Example 46, 4-((5-fluoro-4-(1-(2-hydroxy-2-methylpropyl)-1H-pyrazol-4-yl)pyrimidin-2-yl)amino)-3-methoxybenzenesulfonamide]
2 | ≤ 10 | ≥ 500 | NS(=O)(=O)c1ccc(Nc2ncc(C(F)(F)F)c(-c3cnn(C4CCOCC4)c3)n2)c(F)c1 [Example 47, 3-fluoro-4-((4-(1-(tetrahydro-2H-pyran-4-yl)-1H-pyrazol-4-yl)-5-(trifluoromethyl)pyrimidin-2-yl)amino)benzenesulfonamide]
